Molecular target: TNFα (Homo sapiens, UniProt P01375)
Experiment: TNF induced HEK-Blue assay (NF-kB-driven secreted alkaline phosphatase reporter)
Format: cell-based
Conditions: TNFα 0.5 ng/mL, HEK-Blue-CD40L cells, 18 h; read-out: TNF induced HEK-Blue assay IC50 value
Experimental: TNF or CD40L-Induced HEK-Blue Assay
Test compounds serially diluted in DMSO were plated in an assay plate (LABCYTE, Cat. # LP-0200) at final concentrations ranging from 0.004 μM to 25 μM. TNFα (final concentration 0.5 ng/mL) or CD40L (final concentration 30 ng/mL) in assay buffer [DMEM, 4.5 g/l glucose (Gibco, Cat. 21063-029), 10% FBS (Sigma, F4135), 1% Penicillin-Streptomycin (Gibco, Cat. 15140-122), 1% Anti-Anti (Gibco, Cat. 15240-112) and 2 mM L-glutamine (Gibco, Cat. 25030-081)] was then added to the assay plate. After a 30 minute pre-incubation at 37° C. and 5% CO2, HEK-Blue™-CD40L cells (INVIVOGEN, Cat. Code hkb-cd40) containing a NF-kB-driven secreted alkaline phosphatase reporter gene were seeded into the assay plate at a density of 20,000 cells per well. This plate was then incubated for 18 h at 37° C. and 5% CO2. Secreted alkaline phosphatase expression was measured using QUANTI-Blue™ (INVIVOGEN, Cat. Code rep-qb1) according to manufacturer's specifications and the assay plate was read on a PerkinElmer Envision at 620 nm.
Inhibition data for the test compound over a range of concentrations was plotted as percentage inhibition of the test compound (100%=maximum inhibition). IC50 values were determined after correcting for background [(sample read-mean of low control)/(mean of high control-mean of low control)] where by the low control is DMSO without stimulation and high control is DMSO with stimulation. The IC50 is defined as the concentration of test compound which produces 50% inhibition and was quantified using the 4 parameter logistic equation to fit the data.

Sequence of TNFα (P01375 77-233 limits assumed): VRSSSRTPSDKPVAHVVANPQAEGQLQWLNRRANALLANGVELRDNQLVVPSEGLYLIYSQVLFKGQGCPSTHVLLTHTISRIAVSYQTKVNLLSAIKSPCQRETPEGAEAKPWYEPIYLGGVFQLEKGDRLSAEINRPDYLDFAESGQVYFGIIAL

SMILES | IC50 [nM]
C[C@@H](Nc1c(Cl)cnc2ccccc12)c1cc(-c2cnn(CCN3CCOCC3)c2)ccc1F [Example 480, (R)-3-chloro-N-(1-(2-fluoro-5-(1-(2-morpholinoethyl)-1H-pyrazol-4-yl)phenyl)ethyl)quinolin-4-amine] | 10000 to 25000
Cc1nc2ccc(-c3cnc(C(C)(C)O)nc3)cc2c(N[C@H](C)c2cc(-c3nnn[nH]3)ccc2F)c1Cl [Example 412, (R)-2-(5-(3-chloro-4-((1-(2-fluoro-5-(1H-tetrazol-5-yl)phenyl)ethyl)amino)-2-methylquinolin-6-yl)pyrimidin-2-yl)propan-2-ol] | 10000 to 25000
CNc1ncc(-c2ccc3ncc(Cl)c(N[C@H](C)c4ccccc4F)c3c2)cn1 [Example 17, (R)-3-chloro-N-(1-(2-fluorophenyl)ethyl)-6-(2-(methylamino)pyrimidin-5-yl)quinolin-4-amine] | 10000 to 25000
CC(Nc1c(Cl)cnc2ccc(-c3ccc(C(C)(C)O)cc3)cc12)c1cnn(C)c1 (racemic) [Example 197, 2-(4-(3-chloro-4-((1-(1-methyl-1H-pyrazol-4-yl)ethyl)amino)quinolin-6-yl)phenyl)propan-2-ol] | 10000 to 25000
CC(C)(O)c1ccc(-c2cc3c(NC4(c5ccccc5F)CC4)c(Cl)cnc3cc2F)cc1 [Example 279, 2-(4-(3-chloro-7-fluoro-4-((1-(2-fluorophenyl)cyclopropyl)amino)quinolin-6-yl)phenyl) propan-2-ol] | 1000 to 10000
O=C(O)CNCc1ccc(-c2ccc3ncc(Cl)c(N[C@@H](c4ccccc4F)C(F)F)c3c2)cc1 [Example 13, (S)-(4-(3-chloro-4-((2,2-difluoro-1-(2-fluorophenyl)ethyl)amino)quinolin-6-yl)benzyl)glycine] | 10000 to 25000
CC(Nc1c(Cl)cnc2cc(F)c(-c3cnc(C(O)CN4CCOCC4)cn3)cc12)c1ccccc1F (centres unmarked) [Example 276, 1-(5-(3-chloro-7-fluoro-4-((1-(2-fluorophenyl)ethyl)amino)quinolin-6-yl)pyrazin-2-yl)-2-morpholinoethan-1-ol] | 1000 to 10000
C[C@@H](Nc1c(Cl)cnc2ccccc12)c1cc(OCCCO)ccc1F [Example 458, (R)-3-(3-(1-((3-chloroquinolin-4-yl)amino)ethyl)-4-fluorophenoxy)propan-1-ol] | 1000 to 10000
CC(C)(O)c1ncc(-c2cc3c(NC4(c5ccccc5F)CCC4)c(Cl)cnc3cc2F)cn1 [Example 609, 2-(5-(3-chloro-7-fluoro-4-((1-(2-fluorophenyl)cyclobutyl)amino)quinolin-6-yl)pyrimidin-2-yl)propan-2-ol] | 1000 to 10000
C[C@@H](Nc1c(Cl)cnc2ccccc12)c1cc(-c2cnn(CC(C)(C)O)c2)ccc1F [Example 465, (R)-1-(4-(3-(1-((3-chloroquinolin-4-yl)amino)ethyl)-4-fluorophenyl)-1H-pyrazol-1-yl)-2-methylpropan-2-ol] | 1000 to 10000
C[C@@H](Nc1c(Cl)cnc2ccc(-c3cnc(C(C)(C)O)nc3)cc12)c1cc(C(=O)N(C)C)ccc1F [Example 417, (R)-3-(1-((3-chloro-6-(2-(2-hydroxypropan-2-yl)pyrimidin-5-yl)quinolin-4-yl)amino)ethyl)-4-fluoro-N,N-dimethylbenzamide] | < 1000
CC(Cc1ccc(OC(F)(F)F)cc1)Nc1c(Cl)cnc2ccc(-c3cnc(C(C)(C)O)nc3)cc12 (racemic) [Example 137, 2-(5-(3-chloro-4-((1-(4-(trifluoromethoxy)phenyl)propan-2-yl)amino)quinolin-6-yl)pyrimidin-2-yl)propan-2-ol] | 1000 to 10000
Cc1nc2ccc(-c3cnc(C(C)(C)O)nc3)cc2c(N[C@H](C)c2cc(-c3ccccc3)ccc2F)c1Cl [Example 331, (R)-2-(5-(3-chloro-4-((1-(4-fluoro-[1,1′-biphenyl]—3-yl)ethyl)amino)-2-methylquinolin-6-yl)pyrimidin-2-yl)propan-2-ol] | < 1000

The next lines start with the values.

IC50 [nM] | SMILES
< 1000 | C[C@@H](Nc1c(Cl)cnc2ccc(-c3cnc(N4CCN(C5CCNC5=O)CC4)nc3)cc12)c1ccccc1F (mixture of isomers) [Example 112, 3-(4-(5-(3-chloro-4-(((R)-1-(2-fluorophenyl)ethyl)amino)quinolin-6-yl)pyrimidin-2-yl)piperazin-1-yl)pyrrolidin-2-one]
< 1000 | Cc1nc2ccc(-c3cnc(C(C)(C)O)nc3)cc2c(N[C@H](C)c2cc(NC(=O)OC(C)(C)C)ccc2F)c1Cl [Example 359, tert-Butyl (R)-(3-(1-((3-chloro-6-(2-(2-hydroxypropan-2-yl)pyrimidin-5-yl)-2-methylquinolin-4-yl)amino)ethyl)-4-fluorophenyl)carbamate]
< 1000 | Cc1nc2ccc(-c3cnc(C(C)(C)O)nc3)cc2c(N[C@H](C)c2cc(C(C)O)ccc2F)c1Cl (mixture of isomers) [Example 433, 2-(5-(3-chloro-4-(((1R)-1-(2-fluoro-5-(1-hydroxyethyl)phenyl)ethyl)amino)-2-methylquinolin-6-yl)pyrimidin-2-yl)propan-2-ol]
< 1000 | CC(C)(O)c1ncc(-c2ccc3ncc(Cl)c(NC(CCO)c4ccccc4F)c3c2)cn1 (racemic) [Example 167, 3-((3-chloro-6-(2-(2-hydroxypropan-2-yl)pyrimidin-5-yl)quinolin-4-yl)amino)-3-(2-fluorophenyl)propan-1-ol]
< 1000 | CC(Nc1c(Cl)cnc2cc(F)c(-c3cnc(C(C)(C)O)nc3)nc12)c1ccccc1F (racemic) [Example 209, 2-(5-(7-chloro-3-fluoro-8-((1-(2-fluorophenyl)ethyl)amino)-1,5-naphthyridin-2-yl)pyrimidin-2-yl)propan-2-ol]
< 1000 | COC(=O)N1CCC[C@H]([C@H](C)Nc2c(Cl)cnc3ccc(-c4cnc(C(C)(C)O)nc4)cc23)C1 [Example 354, (S)-methyl 3-((S)-1-((3-chloro-6-(2-(2-hydroxypropan-2-yl)pyrimidin-5-yl)quinolin-4-yl)amino)ethyl)piperidine-1-carboxylate]
< 1000 | Cc1nc2ccc(-c3cnc(C(C)(C)O)nc3)cc2c(N[C@H](C)c2cc(Br)ccc2F)c1Cl [Example 316, (R)-2-(5-(4-((1-(5-bromo-2-fluorophenyl)ethyl)amino)-3-chloro-2-methylquinolin-6-yl)pyrimidin-2-yl)propan-2-ol]
< 1000 | C[C@@H](Nc1c(Cl)cnc2cc(F)c(-c3cnc(C(C)(C)O)nc3)nc12)c1cccc(C(O)CO)c1 (stereo partly drawn) [Example 573, 1-(3-((R)-1-((3-chloro-7-fluoro-6-(2-(2-hydroxypropan-2-yl)pyrimidin-5-yl)-1,5-naphthyridin-4-yl)amino)ethyl)phenyl)ethane-1,2-diol]
< 1000 | CC(Nc1c(Cl)cnc2ccc(-c3ccc(C(C)(C)O)cc3)cc12)c1ncccn1 (racemic) [Example 177, 2-(4-(3-chloro-4-((1-(pyrimidin-2-yl)ethyl)amino)quinolin-6-yl)phenyl)propan-2-ol]
< 1000 | Cc1nc2ccc(-c3cnc(N4CCOCC4)nc3)cc2c(N[C@H](C)c2cc(C(N)=O)ccc2F)c1Cl [Example 313, (R)-3-(1-((3-chloro-2-methyl-6-(2-morpholinopyrimidin-5-yl)quinolin-4-yl)amino)ethyl)-4-fluorobenzamide]
< 1000 | Cc1ccc(F)c(C(C)Nc2c(Cl)cnc3ccc(-c4cnc(N5CCNC(=O)C5)nc4)cc23)n1 (centres unmarked) [Example 484, 4-(5-(3-chloro-4-((1-(3-fluoro-6-methylpyridin-2-yl)ethyl)amino)quinolin-6-yl)pyrimidin-2-yl)piperazin-2-one]
< 1000 | CC(Nc1c(Cl)cnc2ccc(-c3cnc(N4CCNC(=O)C4)nc3)cc12)c1nc(N)ccc1F (centres unmarked) [Example 562, 4-(5-(4-((1-(6-amino-3-fluoropyridin-2-yl)ethyl)amino)-3-chloroquinolin-6-yl)pyrimidin-2-yl) piperazin-2-one]
< 1000 | C[C@@H](Nc1c(Cl)cnc2ccc(-c3cnc(C(C)(C)O)nc3)cc12)c1cc(-c2ncn[nH]2)ccc1F [Example 414, (R)-2-(5-(3-chloro-4-((1-(2-fluoro-5-(1H-1,2,4-triazol-5-yl)phenyl)ethyl)amino)quinolin-6-yl)pyrimidin-2-yl)propan-2-ol]
< 1000 | CC(Nc1c(Cl)cnc2ccc(-c3ccc(C(C)(C)O)cc3)cc12)c1ccncc1 (racemic) [Example 176, 2-(4-(3-chloro-4-((1-(pyridin-4-yl)ethyl)amino)quinolin-6-yl)phenyl)propan-2-ol]
< 1000 | Cc1nc2cc(F)c(-c3cnc(C(C)(C)O)nc3)nc2c(N[C@H](C)c2cccc(C(N)=O)c2)c1Cl [Example 580, (R)-3-(1-((3-chloro-7-fluoro-6-(2-(2-hydroxypropan-2-yl)pyrimidin-5-yl)-2-methyl-1,5-naphthyridin-4-yl)amino)ethyl)benzamide]
< 1000 | CC(Nc1c(Cl)cnc2cc(F)c(-c3cnc(C4(O)CCC(C(=O)O)CC4)nc3)cc12)c1ccccc1F (centres unmarked) [Example 295, 4-(5-(3-chloro-7-fluoro-4-((1-(2-fluorophenyl)ethyl)amino)quinolin-6-yl)pyrimidin-2-yl)-4-hydroxycyclohexane-1-carboxylic acid]

Reference: US10865191B2, “Heterocyclic compounds useful as modulators of TNF alpha” (BRISTOL-MYERS SQUIBB COMPANY, priority 2015, dated 2020)
